Here are results for 12 compounds from patent US10000483B2, “Bone marrow on X chromosome kinase (BMX) inhibitors and uses thereof” (Dana-Farber Cancer Institute, Inc., priority 2012, dated 2018).

Molecules are shown by their SMILES. Values joined by “and” are separate entries in the source; they are usually repeats but may differ in a detail not shown here. Identical values can stand only once.

Experiment [1] relates to BCWM.1 cells. Kind of experiment: Cell proliferation analysis for WM and lymphoma cell lines (CellTiter-Glo). It is filed as cell-based. To be noted: BCWM1; 72 hours.
Experiment [2] has as its system OCI-Ly3 cells. Described as above. It is filed as cell-based. The settings on record: Homo sapiens, 72 hours.
In experiment [3] the test system is CD19+ B-cells from a Waldenstrom's macroglobulinemia patient. Nature of the experiment: Apoptosis analysis of primary patient cells (Annexin V/propidium iodide). The format is cell-based, human. The settings on record: patient after six months of ibrutinib treatment; FIG. 22. The procedure:
Primary patient WM cells genotyped for MYD88 L265P, as well as MYD88 WT healthy donor CD19-selected peripheral blood mononuclear cells (PBMCs) were treated with and without inhibitor compounds. Cells were incubated at 37° C. with 0.01˜4 μM of an inhibitor compound of Formula (I) or (II) (e.g., 11-4). Apoptosis analysis was performed using Annexin V-FITC/Propidium iodide staining with the Apoptosis Detection Kit I (BD Pharmingen). 1×10^6/well cells were treated in 24 well plates for˜24 hours with inhibitor compounds or corresponding controls. A minimum of 10,000 events were acquired using a BD™ FACSCanto II flow cytometer and analyzed with BD FACS DIVA Software.

For experiment [4], the system named is OCI-Ly19 cells. Kind of experiment: Cell proliferation analysis for WM and lymphoma cell lines (CellTiter-Glo). It is filed as cell-based. The settings on record: Homo sapiens, 72 hours.
The subject of experiment [5] is MWCL-1 cells. Described as above. The format is cell-based. To be noted: 72 hours.
For experiment [6], the target named is BTK (Homo sapiens (Human), UniProt Q06187). Kind of experiment: Invitrogen Select Screening in vitro kinase assay. It is filed as biochemical.
Chain of BTK (Q06187 whole entry): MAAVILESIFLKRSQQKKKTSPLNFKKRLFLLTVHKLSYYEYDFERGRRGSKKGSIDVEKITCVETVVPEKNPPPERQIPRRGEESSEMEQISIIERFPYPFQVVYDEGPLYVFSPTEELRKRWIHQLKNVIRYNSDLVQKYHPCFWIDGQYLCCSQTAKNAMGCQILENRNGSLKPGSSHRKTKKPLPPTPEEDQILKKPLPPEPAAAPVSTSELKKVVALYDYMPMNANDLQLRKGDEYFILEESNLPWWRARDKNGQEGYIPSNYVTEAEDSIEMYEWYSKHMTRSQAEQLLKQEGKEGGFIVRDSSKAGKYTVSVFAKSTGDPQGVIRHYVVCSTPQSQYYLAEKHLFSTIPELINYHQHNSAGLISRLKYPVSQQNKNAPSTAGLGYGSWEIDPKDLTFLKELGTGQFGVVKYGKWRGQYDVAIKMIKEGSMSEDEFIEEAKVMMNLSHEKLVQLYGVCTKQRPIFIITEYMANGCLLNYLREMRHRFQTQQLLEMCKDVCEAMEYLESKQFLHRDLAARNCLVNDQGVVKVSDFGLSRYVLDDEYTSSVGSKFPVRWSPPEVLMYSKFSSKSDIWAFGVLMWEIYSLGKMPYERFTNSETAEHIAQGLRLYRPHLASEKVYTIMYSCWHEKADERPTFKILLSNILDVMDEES
For experiment [7], the system named is Ramos cells. Nature of the experiment: Cell proliferation analysis for WM and lymphoma cell lines (CellTiter-Glo). To be noted: Homo sapiens, 72 hours. The format is cell-based.
Experiment [8] addresses mTOR (Homo sapiens (Human), UniProt P42345). Kind of experiment: Invitrogen Select Screening in vitro kinase assay. It is filed as biochemical. The source says: (§1) The in vitro activity of compounds of Formula (I) and (II) in inhibiting BMX and other kinases were obtained using an Invitrogen Select Screening assay as known in the art. The IC50 values determined from this assay are shown below.

Experiment [9] concerns the target BLK (Homo sapiens (Human), UniProt P51451). Kind of experiment: Invitrogen Select Screening in vitro kinase assay. It is filed as biochemical.
Excerpt: as §1

The target of experiment [10] is TEC (Homo sapiens (Human), UniProt P42680). Kind of experiment: Invitrogen Select Screening in vitro kinase assay. The format is biochemical.
Chain of TEC (P42680 whole entry): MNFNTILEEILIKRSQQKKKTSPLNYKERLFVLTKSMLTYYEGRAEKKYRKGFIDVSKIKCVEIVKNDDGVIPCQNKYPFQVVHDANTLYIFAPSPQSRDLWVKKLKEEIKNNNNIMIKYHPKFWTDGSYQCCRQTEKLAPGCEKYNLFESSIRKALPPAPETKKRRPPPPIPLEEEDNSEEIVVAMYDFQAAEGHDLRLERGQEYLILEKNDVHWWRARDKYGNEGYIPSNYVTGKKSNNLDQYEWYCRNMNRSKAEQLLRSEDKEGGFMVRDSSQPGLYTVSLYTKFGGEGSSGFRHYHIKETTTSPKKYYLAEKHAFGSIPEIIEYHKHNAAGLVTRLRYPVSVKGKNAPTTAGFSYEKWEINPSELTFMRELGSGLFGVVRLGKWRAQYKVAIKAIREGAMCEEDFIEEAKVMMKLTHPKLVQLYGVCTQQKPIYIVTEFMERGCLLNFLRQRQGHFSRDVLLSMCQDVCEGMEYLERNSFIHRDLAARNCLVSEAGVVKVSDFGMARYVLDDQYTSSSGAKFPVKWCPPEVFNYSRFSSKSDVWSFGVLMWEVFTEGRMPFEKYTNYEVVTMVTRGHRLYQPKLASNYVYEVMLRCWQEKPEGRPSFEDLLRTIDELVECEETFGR
Excerpt: as §1

Experiment [11] has as its target JAK3 (Homo sapiens (Human), UniProt P52333). Nature of the experiment: Invitrogen Select Screening in vitro kinase assay. The format is biochemical.
For experiment [12], the target named is T1, BMX (Homo sapiens (Human), UniProt P51813). Kind of experiment: Invitrogen Select Screening in vitro kinase assay. It is filed as biochemical.
T1 sequence (P51813 whole entry): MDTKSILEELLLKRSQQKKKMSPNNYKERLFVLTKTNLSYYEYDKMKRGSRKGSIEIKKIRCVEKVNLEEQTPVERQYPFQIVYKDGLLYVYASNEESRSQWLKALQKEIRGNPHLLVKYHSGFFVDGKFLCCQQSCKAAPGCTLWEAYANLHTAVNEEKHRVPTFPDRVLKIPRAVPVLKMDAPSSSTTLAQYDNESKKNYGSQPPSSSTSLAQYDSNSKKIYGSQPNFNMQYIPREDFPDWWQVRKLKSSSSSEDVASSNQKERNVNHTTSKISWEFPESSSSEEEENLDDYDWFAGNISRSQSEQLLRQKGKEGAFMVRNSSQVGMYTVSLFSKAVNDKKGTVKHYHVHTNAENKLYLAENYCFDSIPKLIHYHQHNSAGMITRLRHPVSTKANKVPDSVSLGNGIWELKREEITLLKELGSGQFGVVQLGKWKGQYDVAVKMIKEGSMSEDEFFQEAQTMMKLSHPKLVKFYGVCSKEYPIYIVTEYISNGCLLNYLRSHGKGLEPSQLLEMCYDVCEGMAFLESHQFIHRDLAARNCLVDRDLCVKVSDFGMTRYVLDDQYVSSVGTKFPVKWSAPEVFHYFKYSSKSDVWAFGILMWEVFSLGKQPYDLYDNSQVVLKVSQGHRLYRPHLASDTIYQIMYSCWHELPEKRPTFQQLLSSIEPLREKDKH
In experiment [13] the test system is PRCIWM-1 cells. Nature of the experiment: Cell proliferation analysis for WM and lymphoma cell lines (CellTiter-Glo). The format is cell-based. The settings on record: 72 hours. On the procedure: CellTiter-Glo® Luminescent cell viability assay (Promega) was used to assess cell survival following treatment with an inhibitor compound of Formula (I) or (II) (e.g., 1-14). Various cell lines were used including Waldenström's macroglobulinemia (WM) cell lines (BCWM.1, MWCL-1, RPCI-WM1) and B-cell lymphoma cell lines (OCI-Ly3, Ramos, OCI-Ly19). Cells were seeded into 384 well plates with the EL406 Combination Washer Dispenser (BioTek Instruments, Inc.) and inhibitor compounds were injected into the cells culture media with the JANUS Automated Workstation (PerkinElmer Inc.). Cells were treated with a series diluted inhibitor compounds (20˜0.04 μM) for 72 hours at 37° C. Luminescent measurement is performed using the 2104 Envision® Multilabel Reader (PerkinElmer Inc.).

Experiment [14] deals with T1, BMX. Nature of the experiment: BMX protein levels in RV-1 cells. The settings on record: 72 h treatment, 5 μM. The format is cell-based. The source says: Moreover, the depletion could be rescued upon stable overexpression of the C496S mutant BMX.
The target of experiment [15] is wild-type (WT) BMX (Homo sapiens (Human), UniProt P51813). Nature of the experiment: IP kinase assay, BMX autophosphorylation. To be noted: FIG. 15. The format is biochemical. From the text: FIG. 15 confirms that the potency of the BMX inhibitors is due to covalent binding to cysteine 496.
Chain of wild-type (WT) BMX (P51813 whole entry): as above
The subject of experiment [16] is RV-1 cells. Kind of experiment: Anti-proliferation assay for prostate cancer cells (CellTiter-Glo). The format is cell-based.
Description: Data were normalized to control group (DMSO) and represented by the mean of at least two independent measurement with standard error <20%. GI50 were calculated using Prism 5.0 (GraphPad Software, San Diego, Calif.).
Experiment [17] concerns Bmx- MEF cells stably overexpressing BmxWT. Nature of the experiment: Wound healing assay. The settings on record: preincubated 4 h; leading edges at 0 and 9 h. It is filed as cell-based, mouse. On the procedure:
FIGS. 3A-B show the immunoblotting results where BMX (SiBMX) or control siRNA (SiCtrl) transfected LNCaP cells (FIG. 3A) or VCS2 cells (FIG. 3B) were serum starved for 72 h, serum was stimulated for the indicated times, and the whole cell lysates were immunoblotted. […] FIG. 3G is a bar graph showing the migrated distances where scratch wounds were introduced into confluent heterozygous for Bmx (Bmx^+/−), Bmx^+, or Bmx^− MEFs, and the leading edges were photographed at 0 and 9 h. The migrated distance was measured and normalized to #1 Bmx-group. Error bars depict standard error (SE) for three experiments (***: p<0.001). FIG. 3H is a bar graph showing the migrated distances where scratch wounds were introduced into confluent Bmx^− MEFs stably overexpressing BmxWT, BmxKD, or empty vector (EV), and the leading edges were photographed at 0 and 9 h. The migrated distance was measured and normalized to EV group. Error bar depict standard error (SE) for three independent experiments (*: p<0.05). FIG. 3I is a bar graph showing the migrated distances where Bmx^− MEF cells stably overexpressing BmxWT were preincubated with FAK inhibitor (PF562271) for 4 h. Scratch wounds were introduced into the cells, and the leading edges were photographed at 0 and 9 h. The migrated distance was measured and normalized to control group (Ctrl). […]

The test system of experiment [18] is RV-1 cells. Nature of the experiment: Combination of I-14 with MK2206, dose-response in RV-1 cells. To be noted: with I-14.

Chain of JAK3 (P52333 whole entry): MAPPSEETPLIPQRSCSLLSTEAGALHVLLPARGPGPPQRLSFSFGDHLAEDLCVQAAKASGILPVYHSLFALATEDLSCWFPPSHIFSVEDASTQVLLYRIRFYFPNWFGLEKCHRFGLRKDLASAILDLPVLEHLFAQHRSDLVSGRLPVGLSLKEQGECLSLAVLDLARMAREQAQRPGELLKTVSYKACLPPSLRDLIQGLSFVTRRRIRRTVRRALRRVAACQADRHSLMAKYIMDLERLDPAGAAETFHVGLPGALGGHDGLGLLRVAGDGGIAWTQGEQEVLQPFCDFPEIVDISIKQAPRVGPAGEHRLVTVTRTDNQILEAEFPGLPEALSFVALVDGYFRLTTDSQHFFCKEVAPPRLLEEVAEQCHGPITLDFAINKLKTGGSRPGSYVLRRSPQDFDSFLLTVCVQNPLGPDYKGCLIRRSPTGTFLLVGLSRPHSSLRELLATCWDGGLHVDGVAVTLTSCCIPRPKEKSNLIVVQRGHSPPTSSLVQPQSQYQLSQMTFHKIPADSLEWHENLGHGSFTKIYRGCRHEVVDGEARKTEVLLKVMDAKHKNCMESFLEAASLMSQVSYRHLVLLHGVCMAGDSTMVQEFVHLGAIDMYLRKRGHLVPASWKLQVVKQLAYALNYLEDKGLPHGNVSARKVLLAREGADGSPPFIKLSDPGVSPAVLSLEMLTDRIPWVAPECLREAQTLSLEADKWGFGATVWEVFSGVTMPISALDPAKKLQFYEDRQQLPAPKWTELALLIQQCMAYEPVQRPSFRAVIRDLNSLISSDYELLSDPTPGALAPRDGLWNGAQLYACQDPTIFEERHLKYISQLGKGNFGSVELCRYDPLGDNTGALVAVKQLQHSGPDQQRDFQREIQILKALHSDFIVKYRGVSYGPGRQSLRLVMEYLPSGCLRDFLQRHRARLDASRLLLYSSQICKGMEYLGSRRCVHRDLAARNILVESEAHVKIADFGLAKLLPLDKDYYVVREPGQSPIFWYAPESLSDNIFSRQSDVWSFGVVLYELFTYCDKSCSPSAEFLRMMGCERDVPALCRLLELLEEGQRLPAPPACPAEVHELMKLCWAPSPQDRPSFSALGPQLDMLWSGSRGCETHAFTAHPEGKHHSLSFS
Chain of BLK (P51451 whole entry): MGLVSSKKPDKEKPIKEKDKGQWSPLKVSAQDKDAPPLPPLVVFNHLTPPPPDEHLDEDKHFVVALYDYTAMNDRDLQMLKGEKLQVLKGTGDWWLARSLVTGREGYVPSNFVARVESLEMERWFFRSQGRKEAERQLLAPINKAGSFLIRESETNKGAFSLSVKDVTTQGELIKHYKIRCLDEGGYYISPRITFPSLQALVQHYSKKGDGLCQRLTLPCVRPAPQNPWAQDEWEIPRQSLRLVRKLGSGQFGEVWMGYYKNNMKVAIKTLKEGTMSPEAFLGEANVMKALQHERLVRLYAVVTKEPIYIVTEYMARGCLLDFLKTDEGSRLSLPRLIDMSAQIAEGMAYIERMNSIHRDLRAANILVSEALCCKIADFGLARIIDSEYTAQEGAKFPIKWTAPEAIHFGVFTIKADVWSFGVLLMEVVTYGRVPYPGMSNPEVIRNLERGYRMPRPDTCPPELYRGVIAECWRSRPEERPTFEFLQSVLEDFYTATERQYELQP

As to `C=CC(=O)N1CCc2ccc(-n3c(=O)ccc4cnc5ccc(-c6cnn(C)c6)cc5c43)cc21` [II-4], the EC50 was found to be 0.12 µM in [1], 0.19 µM in [2], 0.03 µM in experiment [4] and 0.19 µM in [5]. In [3], the “killing of ex vivo CD19+ B-cells” value was “effectively killed ex vivo cells”.

On to `C=CC(=O)N1CCc2ccc(-n3c(=O)ccc4cnc5ccc(-c6cn[nH]c6)cc5c43)cc21` [II-14], for which the EC50 in experiment [1] amounted to 0.32 µM; in [2] it was 0.5 µM; in [7] it was 0.36 µM; in [4] it was 0.16 µM; in experiment [5], 0.65 µM. The IC50 in [6] was 0.012 µM; in experiment [8], 0.209 µM; in experiment [9], 0.247 µM; in [10], 0.057 µM; in experiment [11], 2.15 µM; in [12], 0.00875 µM and 0.009 µM.

As to `C=CC(=O)Nc1cc(-n2c(=O)ccc3cnc4ccc(-c5ccc(N)nc5)cc4c32)ccc1C` [II-5], the concentration giving a half-maximal response (EC50) in experiment [1] came out at 0.643 µM; in [2], 0.408 µM; in [13], 0.086 µM; in experiment [7], 0.872 µM; in experiment [4], 0.454 µM; in experiment [5] it was 1.55 µM. Besides, the IC50 in experiment [6] is 0.016 µM; in experiment [8] it was 0.017 µM; in experiment [12] it was 0.0129 µM and 0.013 µM.

For the compound `CCC(=O)Nc1cc(-n2c(=O)ccc3cnc4ccc(-c5ccc(NS(C)(=O)=O)cc5)cc4c32)ccc1C` [I-14R], the “BMX protein levels in RV-1 cells” value in experiment [14] is listed as “not”. In experiment [15], the “concentration inhibiting autophosphorylation of wild-type BMX” value is > 10,000 nM. Also, the “concentration with antiproliferative effects against RV-1 cells” value in experiment [16] is not below 10 µM.

On to `C=CC(=O)N1CCc2ccc(-n3c(=O)ccc4cnc5ccc(-c6ccc(N)nc6)cc5c43)cc21` [II-13], for which the 50% effective concentration (EC50) in [1] amounted to 0.77 µM; in [2], 1.67 µM; in experiment [7] it was 1.35 µM; in [4], 0.1 µM; in experiment [5], 2.47 µM. Moreover, the 50% inhibitory concentration (IC50) in experiment [6] is 0.006 µM; in experiment [8], 0.098 µM; in [9] it was 0.3 µM; in experiment [10], 0.027 µM; in experiment [11], 5.64 µM; in [12], 0.0133 µM and 0.013 µM.

Regarding `CN(c1ncccc1CNc1nc(Nc2ccc3c(c2)CC(=O)N3)ncc1C(F)(F)F)S(C)(=O)=O` [PF562271], the “stimulatory effect of BmxWT on wound healing migration” value in experiment [17] is “blocked”.

With `NC1(c2ccc(-c3nc4ccn5c(=O)[nH]nc5c4cc3-c3ccccc3)cc2)CCC1` [MK2206], the “MK2206 concentration that potentiates the antiproliferative activity of I-14” value in experiment [18] is not above 25 nM.

Take `C=CC(=O)Nc1cc(-n2c(=O)ccc3cnc4ccc(-c5cnn(S(=O)(=O)c6ccccc6)c5)cc4c32)ccc1C` [II-23]: the EC50 was 0.643 µM in [1]; 0.408 µM in experiment [2]; 0.086 µM in experiment [13]; 0.872 µM in [7]; 0.454 µM in experiment [4]; 1.55 µM in [5].

Regarding `C=CC(=O)Nc1cc(-n2c(=O)ccc3cnc4ccc(Nc5ccc6cccnc6c5)cc4c32)ccc1C` [I-28], the concentration for a half-maximal effect (EC50) in experiment [1] was found to be 4.44 µM; in experiment [2], 3.59 µM; in [13] it was 0.691 µM; in experiment [7] it was 3.43 µM; in [4], 1.05 µM; in experiment [5], 7.49 µM.

Turning to `C=CC(=O)Nc1cc(-n2c(=O)ccc3cnc4ccc(Nc5ccc6ncccc6c5)cc4c32)ccc1C` [I-29], the EC50 was 2.2 µM in [1]; 3.08 µM in experiment [2]; 0.528 µM in experiment [13]; 2.57 µM in experiment [7]; 0.39 µM in experiment [4]; 7.29 µM in experiment [5].

As for `C=CC(=O)Nc1cc(-n2c(=O)ccc3cnc4ccc(Nc5ccc6cnccc6c5)cc4c32)ccc1C` [I-27], the EC50 turned out to be 1.35 µM in experiment [1]; 2.59 µM in experiment [2]; 0.345 µM in experiment [13]; 6.28 µM in [7]; 0.374 µM in [4]; 9.15 µM in [5].

Turning to `C=CC(=O)Nc1cc(-n2c(=O)ccc3cnc4ccc(Nc5ccc6ccncc6c5)cc4c32)ccc1C` [I-26], the EC50 in experiment [1] was found to be 3.58 µM; in [2], 3.34 µM; in experiment [13] it was 0.663 µM; in experiment [7], 3.83 µM; in experiment [4], 0.659 µM; in [5], 6.82 µM.
